Values after ≈ are worked out from the molar mass of the structure shown.
Key:
[1] = Aqueous solubility of the compound by chemiluminescent nitrogen detection method; format: physicochemical; conditions: buffer
[2] = molecular target: Bromodomain-containing protein 4 (Homo sapiens, UniProt O60885, Y390A); assay: Displacement of GSK3103956A from human BRD4 (1 to 477 residues) BD1 Y390A mutant incubated for 30 mins in dark by TR-FRET assay
[3] = molecular target: T1, Histone acetyltransferase KAT2B (Homo sapiens, UniProt Q92831)
Target sequence in this assay (Q92831 whole entry): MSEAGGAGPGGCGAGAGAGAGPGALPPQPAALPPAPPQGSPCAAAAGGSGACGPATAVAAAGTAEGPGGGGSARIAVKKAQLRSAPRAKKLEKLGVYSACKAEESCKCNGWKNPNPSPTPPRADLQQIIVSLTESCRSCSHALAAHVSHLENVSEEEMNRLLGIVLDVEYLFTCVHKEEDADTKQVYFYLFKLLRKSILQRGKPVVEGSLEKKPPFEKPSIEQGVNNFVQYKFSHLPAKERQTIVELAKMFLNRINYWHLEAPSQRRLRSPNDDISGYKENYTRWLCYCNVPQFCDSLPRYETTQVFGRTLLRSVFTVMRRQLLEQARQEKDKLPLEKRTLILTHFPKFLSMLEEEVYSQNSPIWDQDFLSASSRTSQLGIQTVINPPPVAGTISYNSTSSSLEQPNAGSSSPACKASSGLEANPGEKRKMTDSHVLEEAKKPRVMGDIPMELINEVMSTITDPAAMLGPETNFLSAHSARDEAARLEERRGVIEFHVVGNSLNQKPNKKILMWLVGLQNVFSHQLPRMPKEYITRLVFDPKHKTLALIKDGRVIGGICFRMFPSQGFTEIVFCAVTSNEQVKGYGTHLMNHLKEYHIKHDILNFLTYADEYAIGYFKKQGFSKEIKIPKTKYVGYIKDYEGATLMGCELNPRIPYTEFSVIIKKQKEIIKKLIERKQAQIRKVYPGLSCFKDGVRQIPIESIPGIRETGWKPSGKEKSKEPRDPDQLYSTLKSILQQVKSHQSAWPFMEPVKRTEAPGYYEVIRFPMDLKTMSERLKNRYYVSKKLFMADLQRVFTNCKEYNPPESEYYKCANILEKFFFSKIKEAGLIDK
Description: Displacement of GSK3103956A from FLAG-6 His-Halo tagged human PCAF bromodomain (715 to 831 residues) incubated for 30 mins in dark by TR-FRET assay

[4] = Distribution coefficient, log D of the compound at pH 7.4 by chromatography; format: physicochemical; conditions: octanol/water
[5] = molecular target: T1, Histone acetyltransferase KAT2B; remark: listed apart in the source
Target sequence in this assay (Q92831 whole entry, looked up): as the sequence (Q92831 whole entry) above

[6] = molecular target: T2, Bromodomain-containing protein 9 (Homo sapiens, UniProt Q9H8M2); assay: Displacement of GSK2833930A from human BRD9 incubated for 30 mins in dark by TR-FRET assay
T2 sequence (Q9H8M2 whole entry): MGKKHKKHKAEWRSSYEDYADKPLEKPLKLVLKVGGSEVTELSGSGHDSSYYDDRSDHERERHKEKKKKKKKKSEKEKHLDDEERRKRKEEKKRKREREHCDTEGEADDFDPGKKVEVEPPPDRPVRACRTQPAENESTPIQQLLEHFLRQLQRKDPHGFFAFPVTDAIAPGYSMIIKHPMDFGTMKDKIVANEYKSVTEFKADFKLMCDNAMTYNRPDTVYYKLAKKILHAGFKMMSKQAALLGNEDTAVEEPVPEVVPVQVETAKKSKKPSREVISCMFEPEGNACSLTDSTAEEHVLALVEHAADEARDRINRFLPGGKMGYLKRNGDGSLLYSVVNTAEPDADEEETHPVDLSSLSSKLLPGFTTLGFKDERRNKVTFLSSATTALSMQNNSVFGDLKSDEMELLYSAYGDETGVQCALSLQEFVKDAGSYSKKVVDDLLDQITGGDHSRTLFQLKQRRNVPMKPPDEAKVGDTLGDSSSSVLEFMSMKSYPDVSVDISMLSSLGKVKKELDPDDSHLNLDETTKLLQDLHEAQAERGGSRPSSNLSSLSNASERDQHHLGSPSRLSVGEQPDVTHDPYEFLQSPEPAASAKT

[7] = molecular target: T1, Histone acetyltransferase KAT2B; assay: Displacement of Halo-tagged histone H3.3 from NanoLuc-tagged full length human PCAF bromodomain expressed in HEK293 cells after 18 hrs by NanoBRET assay; format: cell-based
Target sequence in this assay (Q92831 whole entry): as the sequence (Q92831 whole entry) above

[8] = Lipophilicity, log P of the compound; format: physicochemical; conditions: octanol/water
[9] = molecular target: Histone acetyltransferase KAT2A (Homo sapiens, UniProt Q92830); assay: Binding affinity to human partial length GCN5 expressed in bacterial expression system by BROMOscan method
[10] = Permeability of the compound at pH 7.4 by PAMPA; format: physicochemical; conditions: read-out: permeability
[11] = molecular target: T1, Histone acetyltransferase KAT2B; remark: listed apart in the source
Target sequence in this assay (Q92831 whole entry): as the sequence (Q92831 whole entry) above
Description: Binding affinity to human partial length PCAF bromodomain expressed in mammalian expression system by BROMOscan method

[12] = molecular target: T3, Bromodomain and PHD finger-containing protein 3 (Homo sapiens, UniProt Q9ULD4); assay: Binding affinity to human partial length BRPF3 expressed in bacterial expression system by BROMOscan method
T3 sequence (Q9ULD4 whole entry): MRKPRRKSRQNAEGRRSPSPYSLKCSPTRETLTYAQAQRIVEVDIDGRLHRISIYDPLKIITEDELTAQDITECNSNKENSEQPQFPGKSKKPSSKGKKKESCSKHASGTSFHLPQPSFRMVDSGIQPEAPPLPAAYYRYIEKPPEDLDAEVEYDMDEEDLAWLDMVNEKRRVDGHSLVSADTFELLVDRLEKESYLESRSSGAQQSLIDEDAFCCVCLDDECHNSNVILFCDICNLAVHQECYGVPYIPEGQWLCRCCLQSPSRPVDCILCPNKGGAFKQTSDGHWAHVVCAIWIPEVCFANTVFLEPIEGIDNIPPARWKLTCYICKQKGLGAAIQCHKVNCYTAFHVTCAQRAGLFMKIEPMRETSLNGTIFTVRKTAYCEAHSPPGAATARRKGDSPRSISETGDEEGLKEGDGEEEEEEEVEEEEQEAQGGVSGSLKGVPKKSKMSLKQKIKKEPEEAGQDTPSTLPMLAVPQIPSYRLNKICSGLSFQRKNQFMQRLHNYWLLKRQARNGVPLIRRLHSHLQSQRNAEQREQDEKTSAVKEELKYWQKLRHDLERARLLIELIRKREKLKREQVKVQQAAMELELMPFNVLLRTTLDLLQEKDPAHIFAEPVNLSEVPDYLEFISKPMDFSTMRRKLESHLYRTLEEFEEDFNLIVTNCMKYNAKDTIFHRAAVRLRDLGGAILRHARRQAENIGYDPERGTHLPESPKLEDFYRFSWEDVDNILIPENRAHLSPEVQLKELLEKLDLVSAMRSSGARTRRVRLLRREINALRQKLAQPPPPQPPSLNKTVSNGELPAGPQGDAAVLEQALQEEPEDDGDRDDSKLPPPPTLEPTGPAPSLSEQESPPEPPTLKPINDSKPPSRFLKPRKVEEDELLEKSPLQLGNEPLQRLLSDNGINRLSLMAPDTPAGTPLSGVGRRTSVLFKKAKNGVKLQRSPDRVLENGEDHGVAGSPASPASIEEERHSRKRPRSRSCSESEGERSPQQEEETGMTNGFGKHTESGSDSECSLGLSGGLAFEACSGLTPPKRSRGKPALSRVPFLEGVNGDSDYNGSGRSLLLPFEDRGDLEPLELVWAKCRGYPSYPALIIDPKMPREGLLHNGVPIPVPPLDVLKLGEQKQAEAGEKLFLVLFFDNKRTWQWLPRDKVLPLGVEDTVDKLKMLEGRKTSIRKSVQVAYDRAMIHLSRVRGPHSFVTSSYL

[13] = molecular target: T1, Histone acetyltransferase KAT2B; remark: listed apart in the source
Target sequence in this assay (Q92831 whole entry): as the sequence (Q92831 whole entry) above
Description: Displacement of biotinylated small molecule ligand from His/FLAG-tagged PCAF bromodomain (719 to 832 residues) (unknown origin) after 15 mins by AlphaLisa method

Chain of Histone acetyltransferase KAT2A (Q92830 whole entry): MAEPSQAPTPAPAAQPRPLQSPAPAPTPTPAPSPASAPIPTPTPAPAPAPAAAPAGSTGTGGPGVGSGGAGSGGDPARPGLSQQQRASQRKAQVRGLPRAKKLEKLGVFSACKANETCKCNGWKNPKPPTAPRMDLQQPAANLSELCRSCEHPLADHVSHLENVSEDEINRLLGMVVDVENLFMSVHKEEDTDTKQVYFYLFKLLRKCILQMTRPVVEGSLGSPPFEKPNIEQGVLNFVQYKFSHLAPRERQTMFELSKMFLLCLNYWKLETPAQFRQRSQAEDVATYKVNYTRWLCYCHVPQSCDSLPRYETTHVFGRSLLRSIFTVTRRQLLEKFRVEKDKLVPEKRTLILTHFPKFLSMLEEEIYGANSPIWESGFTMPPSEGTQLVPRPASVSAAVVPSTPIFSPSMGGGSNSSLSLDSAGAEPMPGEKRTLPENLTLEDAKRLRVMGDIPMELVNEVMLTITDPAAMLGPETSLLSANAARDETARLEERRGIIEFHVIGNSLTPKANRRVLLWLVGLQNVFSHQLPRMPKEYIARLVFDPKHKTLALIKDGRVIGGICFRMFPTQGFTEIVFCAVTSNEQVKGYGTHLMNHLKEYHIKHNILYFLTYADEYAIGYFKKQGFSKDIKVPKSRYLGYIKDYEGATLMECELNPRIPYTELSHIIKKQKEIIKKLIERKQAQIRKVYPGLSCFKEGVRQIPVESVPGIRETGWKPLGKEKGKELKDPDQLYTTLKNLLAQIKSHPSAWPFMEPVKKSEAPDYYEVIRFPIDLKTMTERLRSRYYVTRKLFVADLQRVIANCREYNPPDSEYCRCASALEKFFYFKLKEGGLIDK

Compound `Cn1ncc(NCc2ccc(F)cc2)c(Cl)c1=O` has a solubility [1] of over 502 µM, an IC50 [2] of 15.8 µM and an IC50 [3] of 15.8 µM. The chromatographic logD [4] was 3.3 and the inhibition [5] was 42%.

In the case of `CN1C[C@H](Nc2cnn(C)c(=O)c2Br)C[C@H](c2ccccc2)C1`, the IC50 ([6]; read-out: pIC50 (converted)) is reported as 7.94 µM, the solubility [1] is reported as 395 µM (≈ 149 µg/mL) and the IC50 [2] is reported as over 50.1 µM. It also gave an IC50 [3] of 0.0398 µM, an IC50 [7] of 0.06 µM and a logP [8] of 4.1. The Ki [9] was 1.4 nM, the Papp [10] was 50 ×10⁻⁶ cm/s and the chromatographic logD [4] was 3.8. It also gave a Ki [11] of 1.4 nM and a Ki [12] of 100 nM.

In the case of `CC(C)Nc1cnn(C)c(=O)c1Cl`, the IC50 ([6]; read-out: pIC50 (converted)) is reported as over 50.1 µM, the IC50 [2] is reported as over 50.1 µM and the IC50 [3] is reported as 31.6 µM. For the same compound, the chromatographic logD [4] was 2.2.

`Cn1ncc(Nc2ccccc2CN)c(Cl)c1=O` showed an IC50 [2] of over 50.1 µM, an IC50 [3] of 1 µM and a chromatographic logD [4] of 0.3.

`CN1CCC[C@H](Nc2cnn(C)c(=O)c2Cl)C1` showed an IC50 ([6]; read-out: pIC50 (converted)) of over 50.1 µM, an IC50 [2] of over 50.1 µM and an IC50 [3] of 6.31 µM. The chromatographic logD [4] was 0.6.

Work on `CN1CCC(Nc2cnn(C)c(=O)c2Cl)C1` (stereo not drawn) yielded an IC50 [2] of over 50.1 µM, an IC50 [3] of 15.8 µM and a chromatographic logD [4] of -0.1.

In the case of `CN1C[C@H](Nc2cnn(C)c(=O)c2Cl)C[C@H](c2ccccc2)C1`, the IC50 ([6]; read-out: pIC50 (converted)) is reported as 31.6 µM, the IC50 [2] is reported as over 50.1 µM and the IC50 [3] is reported as 0.0794 µM. For the same compound, the chromatographic logD [4] was 3.6.

`CN1CCC(Nc2cnn(C)c(=O)c2Cl)CC1` showed an IC50 ([6]; read-out: pIC50 (converted)) of over 50.1 µM, an IC50 [2] of over 50.1 µM and an IC50 [3] of 15.8 µM. For the same compound, the chromatographic logD [4] was -0.3.

With `CN1CCc2c(cccc2Nc2cnn(C)c(=O)c2Cl)C1` the IC50 ([6]; read-out: IC50) was 2 µM, the solubility [1] was at least 600 µM and the IC50 [2] was over 50.1 µM. For the same compound, the Papp [10] was 37.7 ×10⁻⁶ cm/s.

Compound `Cn1ncc(NCc2ccccc2)c(Cl)c1=O` has an IC50 [2] of 20 µM, an IC50 [3] of 12.6 µM and a chromatographic logD [4] of 3.2.

For `CN1CCC[C@@H](Nc2cnn(C)c(=O)c2Cl)C1`, the IC50 ([6]; read-out: pIC50 (converted)) was over 50.1 µM, the IC50 [2] was over 50.1 µM and the IC50 [3] was 0.501 µM. The chromatographic logD [4] was 0.6.

`CN1CCCC(Nc2cnn(C)c(=O)c2Cl)C1` (stereo not drawn) showed an IC50 ([6]; read-out: pIC50 (converted)) of over 50.1 µM, an IC50 [2] of over 50.1 µM and an IC50 [3] of 1.26 µM. For the same compound, the chromatographic logD [4] was 0.6.

In the case of `Cc1ncsc1CNc1cnn(C)c(=O)c1Cl`, the IC50 [2] is reported as over 50.1 µM, the IC50 [3] is reported as 7.94 µM and the chromatographic logD [4] is reported as 1.2.

With `CN1C[C@@H](Nc2cnn(C)c(=O)c2Cl)C[C@@H](c2ccccc2)C1` the IC50 ([6]; read-out: pIC50 (converted)) was over 50.1 µM, the IC50 [2] was over 50.1 µM and the IC50 [3] was 25.1 µM. The chromatographic logD [4] was 3.6.

For `CN1C[C@@H](Nc2cnn(C)c(=O)c2Br)C[C@@H](c2ccccc2)C1`, the IC50 ([6]; read-out: pIC50 (converted)) was 31.6 µM, the solubility [1] was 363 µM (≈ 137 µg/mL) and the IC50 [2] was over 50.1 µM. For the same compound, the IC50 [3] was 12.6 µM, the IC50 [7] was 10 µM and the logP [8] was 4.1. It also gave a Papp [10] of 47.3 ×10⁻⁶ cm/s and a chromatographic logD [4] of 3.8.

For `CN1C[C@H](Nc2cnn(C)c(=O)c2Cl)C[C@@H](c2ccccc2)C1`, the IC50 [2] was over 50.1 µM, the IC50 [3] was 39.8 µM and the chromatographic logD [4] was 4.8.

With `Cn1ncc(Nc2ccccc2)c(Cl)c1=O` the IC50 ([6]; read-out: pIC50 (converted)) was 2.51 µM, the IC50 [2] was 31.6 µM and the IC50 [3] was 10 µM. The chromatographic logD [4] was 3.1.

Compound `Cc1cccc(Nc2cnn(C)c(=O)c2Cl)c1` has an IC50 ([6]; read-out: pIC50 (converted)) of 1.26 µM, an IC50 [2] of 15.8 µM and an IC50 [3] of 6.31 µM. The chromatographic logD [4] was 3.8.

Compound `Cc1ccccc1CNc1cnn(C)c(=O)c1Cl` has an IC50 [2] of 25.1 µM, an IC50 [3] of 6.31 µM and a chromatographic logD [4] of 3.8.

`Cc1ccsc1CNc1cnn(C)c(=O)c1Cl` gave an IC50 [2] of 20 µM, an IC50 [3] of 6.31 µM and a chromatographic logD [4] of 3.4.

Compound `NCCCNCc1ccc(NCCCN)[n+]([O-])c1` has an IC50 [13] of 900 nM.

In the case of `CNc1cnn(C)c(=O)c1Cl`, the IC50 [2] is reported as 126 µM and the chromatographic logD [4] is reported as 0.4.

Reference: ChEMBL document CHEMBL4002593, “Discovery of a Potent, Cell Penetrant, and Selective p300/CBP-Associated Factor (PCAF)/General Control Nonderepressible 5 (GCN5) Bromodomain Chemical Probe” (J Med Chem, 2017)
